Tested on: human maximum recommended daily dose, FDA database
Experiment: DSSTox (FDAMDD) FDA Maximum (Recommended) Daily Dose Database
Settings: active compounds read low
In short: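 MRDD values come from clinical trials with daily oral dosing, usually for 3–12 months, for the average adult, in mg/day converted to mg/kg-bw/day assuming 60 kg. Antineoplastic mg/m2 doses are divided by 37. Activity score maps log10(1/MRDD mmol) onto 1–100.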

[1] = TherapeuticCategory: antibacterial
[2] = TherapeuticCategory: antihypertensive
[3] = TherapeuticCategory: antineoplastic
[4] = TherapeuticCategory: cardiotonic
[5] = TherapeuticCategory: glucocorticoid

For CO[C@H]1C[C@H](O[C@H]2[C@H](C)O[C@@H](O[C@@H]3/C(C)=C/C[C@@H]4C[C@@H](C[C@]5(CC[C@H](C)[C@@H](C(C)C)O5)O4)OC(=O)[C@@H]4C=C(C)[C@@H](O)[C@H]5OC/C(=C\C=C\[C@@H]3C)[C@]54O)C[C@@H]2OC)O[C@@H](C)[C@@H]1O, the maximum recommended daily dose (mmol/kg-bw/day) (TherapeuticCategory: anthelmintic) was 0.000174.
Molecule CC[C@H]1OC(=O)[C@H](C)[C@@H](O[C@H]2C[C@@](C)(OC)[C@@H](O)[C@H](C)O2)C(C)[C@@H](O[C@@H]2O[C@H](C)C[C@H](N(C)C)[C@H]2O)[C@](C)(OC)C[C@@H](C)C(=O)[C@H](C)[C@@H](O)[C@]1(C)O (stereo partly drawn) has a maximum recommended daily dose (mmol/kg-bw/day) [1] of 0.0111.
O=C(O)c1cc(=O)c2c(OCC(O)COc3cccc4oc(C(=O)O)cc(=O)c34)cccc2o1 was tested, and the maximum recommended daily dose (mmol/kg-bw/day) (TherapeuticCategory: prophylactic antiasthmatic, antiallergic) was 0.0284.
For O=C(Cc1cccs1)N[C@@H]1C(=O)N2C(C(=O)[O-])=C(C[n+]3ccccc3)CS[C@H]12, the maximum recommended daily dose (mmol/kg-bw/day) [1] was 0.161.
NC[C@H](O)c1ccc(O)c(O)c1 was tested, and the maximum recommended daily dose (mmol/kg-bw/day) (TherapeuticCategory: adrenergic, antihypotensive) was 0.000394.
With COC(=O)[C@H]1[C@H]2C[C@@H]3c4[nH]c5ccccc5c4CCN3C[C@H]2C[C@@H](OC(=O)c2cc(OC)c(OC)c(OC)c2)[C@@H]1OC the maximum recommended daily dose (mmol/kg-bw/day) [2] was 2.89e-05.
Molecule CN(C)[C@@H]1C(=O)C(C(=O)NCN2CCCC2)=C(O)[C@@]2(O)C(=O)C3=C(O)c4c(O)cccc4[C@@](C)(O)C3C[C@@H]12 (stereo partly drawn) has a maximum recommended daily dose (mmol/kg-bw/day) [1] of 0.0111.
For CCCc1nc2c(C)cc(-c3nc4ccccc4n3C)cc2n1Cc1ccc(-c2ccccc2C(=O)O)cc1, the maximum recommended daily dose (mmol/kg-bw/day) [2] was 0.00258.
For O=NN(CCCl)C(=O)NC1CCCCC1, the maximum recommended daily dose (mmol/kg-bw/day) [3] was 0.015.
N[C@@H](CCC(=O)O)C(=O)O was tested, and the maximum recommended daily dose (mmol/kg-bw/day) (TherapeuticCategory: experimental antiepileptic) was 0.68.
N[C@@H](Cc1ccc(O)cc1)C(=O)O was tested, and the maximum recommended daily dose (mmol/kg-bw/day) (TherapeuticCategory: none) was 0.552.
For CCC(COC(=O)c1cc(OC)c(OC)c(OC)c1)(c1ccccc1)N(C)C (stereo not drawn), the maximum recommended daily dose (mmol/kg-bw/day) (TherapeuticCategory: antispasmodic) was 0.0258.
CO[C@H]1[C@@H](O)C[C@H](O[C@H]2[C@@H](O)C[C@H](O[C@H]3[C@@H](O)C[C@H](O[C@H]4CC[C@@]5(C)[C@H](CC[C@@H]6[C@@H]5C[C@@H](O)[C@]5(C)[C@@H](C7=CC(=O)OC7)CC[C@]65O)C4)O[C@@H]3C)O[C@@H]2C)O[C@@H]1C was tested, and the maximum recommended daily dose (mmol/kg-bw/day) [4] was 8.39e-06.
C[N+]1(C)CCCC(OC(=O)C(O)(c2ccccc2)c2ccccc2)C1 (stereo not drawn) was tested, and the maximum recommended daily dose (mmol/kg-bw/day) (TherapeuticCategory: anticholinergic) was 0.00792.
CC(C)N=c1cc2n(-c3ccc(Cl)cc3)c3ccccc3nc-2cc1Nc1ccc(Cl)cc1 gave a maximum recommended daily dose (mmol/kg-bw/day) [1] of 0.00703.
With CN1CCC(=C2c3ccccc3C=Cc3ccccc32)CC1 the maximum recommended daily dose (mmol/kg-bw/day) (TherapeuticCategory: antihistaminic, antipruritic) was 0.00174.
Molecule CC[C@H](OC(C)=O)C(C[C@H](C)N(C)C)(c1ccccc1)c1ccccc1 has a maximum recommended daily dose (mmol/kg-bw/day) (TherapeuticCategory: treatment of narcotic addiction) of 0.0113.
For CCN(CC)CCNc1ccc(C)c2sc3ccccc3c(=O)c12, the maximum recommended daily dose (mmol/kg-bw/day) (TherapeuticCategory: antihelmintic) was 0.0978.
CC[C@@H](CO)NC(=O)[C@@H]1C=C2c3cccc4c3c(cn4C)C[C@H]2N(C)C1 showed a maximum recommended daily dose (mmol/kg-bw/day) (TherapeuticCategory: antimigraine) of 0.000283.
In the case of Cc1cc2nc3c(=O)[nH]c(=O)nc-3n(C[C@H](O)[C@H](O)[C@H](O)CO)c2cc1C, the maximum recommended daily dose (mmol/kg-bw/day) (TherapeuticCategory: enzyme cofactor vitamin) is reported as 0.00133.
In the case of CC(=O)OCC(=O)[C@@]1(O)CC[C@H]2[C@@H]3CCC4=CC(=O)CC[C@]4(C)[C@H]3C(=O)C[C@@]21C, the maximum recommended daily dose (mmol/kg-bw/day) [5] is reported as 0.0124.
Molecule CC1(C)S[C@@H]2[C@H](NC(=O)[C@@H](NC(=O)N3CCNC3=O)c3ccccc3)C(=O)N2[C@H]1C(=O)O has a maximum recommended daily dose (mmol/kg-bw/day) [1] of 0.217.
Molecule CN(C)CCOC(C)(c1ccccc1)c1ccccn1 (stereo not drawn) has a maximum recommended daily dose (mmol/kg-bw/day) (TherapeuticCategory: antihistaminic, hypnotic) of 0.00154.
CC(=O)O[C@H]1C[C@H](O[C@H]2[C@@H](O)C[C@H](O[C@H]3[C@@H](O)C[C@H](OC4CC[C@@]5(C)C(CC[C@@H]6[C@@H]5CC[C@]5(C)[C@@H](C7=CC(=O)OC7)[C@@H](O)C[C@]65O)C4)O[C@@H]3C)O[C@@H]2C)O[C@H](C)[C@H]1O[C@@H]1O[C@H](CO)[C@@H](O)[C@H](O)[C@H]1O (stereo partly drawn) was tested, and the maximum recommended daily dose (mmol/kg-bw/day) [4] was 3.38e-05.
Cc1nnc(SCC2=C(C(=O)O)N3C(=O)[C@@H](NC(=O)Cn4cnnn4)[C@H]3SC2)s1 showed a maximum recommended daily dose (mmol/kg-bw/day) [1] of 0.147.
For O=c1[nH]c(=O)n([C@H]2C[C@H](O)[C@@H](CO)O2)cc1F, the maximum recommended daily dose (mmol/kg-bw/day) (TherapeuticCategory: antiviral, antineoplastic) was 0.00244.
Work on CN1C(=O)CN=C(c2ccccc2F)c2cc([N+](=O)[O-])ccc21 yielded a maximum recommended daily dose (mmol/kg-bw/day) (TherapeuticCategory: hypnotic) of 0.000106.
COC(=O)c1ccc(O)cc1 was tested, and the maximum recommended daily dose (mmol/kg-bw/day) (TherapeuticCategory: none) was 0.0657.
CC(=O)OCC(=O)[C@@]1(O)CC[C@H]2[C@@H]3CCC4=CC(=O)C=C[C@]4(C)[C@H]3[C@@H](O)C[C@@]21C was tested, and the maximum recommended daily dose (mmol/kg-bw/day) [5] was 0.00827.
For CC(C)(C)NCC(O)COc1cccc2c1CCC(=O)N2 (stereo not drawn), the maximum recommended daily dose (mmol/kg-bw/day) (TherapeuticCategory: antihypertensive, antianginal, antiarrhythmic, antiglaucomic) was 0.000571.
For CC(Cc1ccc(O)cc1)NCC(O)c1cc(O)cc(O)c1 (stereo not drawn), the maximum recommended daily dose (mmol/kg-bw/day) (TherapeuticCategory: bronchodilator, tocolytic) was 8.8e-05.
NNc1nncc2ccccc12 was tested, and the maximum recommended daily dose (mmol/kg-bw/day) [2] was 0.0208.
Work on CN(C)/N=N/c1nc[nH]c1C(N)=O yielded a maximum recommended daily dose (mmol/kg-bw/day) [3] of 0.0247.

Source: PubChem BioAssay AID1195 (EPA DSSTox, 2008)
